One data set deals with hERG channel (Homo sapiens (Human), UniProt Q12809). Kind of data set: hERG channel inhibition assay (patch-clamp, CHOhERG cells). Format: cell-based. On the procedure:
The hERG K^+ channels were cloned in humans and stably expressed in a CHO (Chinese hamster ovary) cell line. CHOhERG cells were used for patch-clamp (voltage-clamp, whole-cell) experiments. Cells were stimulated by a voltage pattern to activate hERG channels and conduct IKhERG currents (rapid delayed outward rectifier potassium current of the hERG channel). […] Thereafter, the test compound was added to the preparation at increasing concentrations. For each concentration, an attempt was made to reach a steady-state effect, usually, this was achieved within 3-10 min at which time the next highest concentration was applied. The amplitude and kinetics of IKhERG are recorded in each concentration of the drug which were compared to the control values (taken as 100%). (references: Redfern W S, Carlsson L, Davis A S, Lynch W G, MacKenzie I, Palethorpe S, Siegl P K, Strang I, Sullivan A T, Wallis R, Camm A J, Hammond T G. 2003; Relationships between preclinical cardiac electrophysiology, clinical QT interval prolongation and torsade de pointes for a broad range of drugs: evidence for a provisional safety margin in drug development. Cardiovasc. Res. 58:32-45, Sanguinetti M C, Tristani-Firouzi M. 2006; hERG potassium channels and cardiac arrhythmia. Nature 440:463-469, Webster R, Leishman D, Walker D. 2002; Towards a drug concentration effect relationship for QT prolongation and torsades de pointes. Curr. Opin. Drug Discov. Devel. 5:116-26).
For orientation: Block of hERG is tested as a sign of cardiac risk.

In the next data set the test system is CYP3A4. Kind of data set: Cytochrome P450 induction screening assay, mRNA induction in human cryopreserved hepatocytes. Particulars: 24 hours exposure. In kind it is in vitro ADME. From the text:
Induction of cytochrome P450 enzymes is associated with an increased prevalence of clinical drug-drug interactions. The clinical consequences of induction may be therapeutic failure caused by a decreased systemic exposure of the drug itself or a co-administered therapy, or toxicity as a result of increased bioactivation. Cytochrome P450 (CYP450) induction assay has been used to understand the potential drug-drug interaction liabilities in drug discovery stage. Human cryopreserved hepatocytes (Life Technologies, Carlsbad, USA) were thawed and cultured in collagen I coated 96-well plates with a density of 52,000 cells/well. After attachment, hepatocyte maintenance medium (HMM; Lonza, Switzerland) was changed after cells were pre-cultured overnight. […] Medium change was then performed and cells were exposed for 24 hours to test compounds, positive inducer compounds, or vehicle (0.1% DMSO), respectively. At the end of the compound exposure period, medium was removed and cells lysed using 100 μL/well MagNA Pure LC RNA isolation tissue lysis buffer (Roche Diagnostics AG, Rotkreuz, Switzerland). […] mRNA isolation was performed using the MagNA Pure 96 system (Roche Diagnostics AG, Rotkreuz, Switzerland) and the respective cellular RNA large volume kit (Roche Diagnostics AG, Rotkreuz, Switzerland) from thawed samples diluted 1:1 with PBS. […] The resulting cDNA was diluted with 40 μL of H2O before using for qRT-PCR. qRT-PCR was performed by using the forward and the reverse primer, the corresponding Universal Probe Library (all from Microsynth, Balgach, Switzerland) and the Taqman Fast advanced master mix (Applied Biosystems), on an ABI 7900 machine (Applied Biosystems). qRT-PCR Ct-values for the respective P450s were put into relation to the Ct-value of RN18S1 (microsynth, Balgach, Switzerland) of the same sample. Doing so, a respective Δct-value was calculated. Using the average of all Δct-values for the vehicle control samples, a ΔΔct-value was calculated for each sample (ΔΔct-value(sample)=Δct-value(sample)−average of Δct-value of all vehicle controls). […] The individual fold induction values were then averaged per treatment condition (usually n=3 biological replicates).

Data set [1] in a line: Single dose PK after 1 mg/kg intravenous dosing to rat. In kind it is in vivo, Male Wister-Han Rats. Particulars: IV 1 mpk. On the procedure:
The single dose PK in Male Wister-Han Rats was performed to assess pharmacokinetic properties of tested compounds. Two groups of animals were dosed via bolus intravenous (IV) of the respective compound. Blood samples (approximately 20 μL) were collected via Jugular vein or an alternate site at 5 min, 15 min, 30 min, 1 hr, 2 hr, 4 hr, 7 hr and 24 hr post-dose for IV group. Blood samples were placed into tubes containing EDTA-K2 anticoagulant and centrifuged at 5000 rpm for 6 min at 4° C. to separate plasma from the samples. Following centrifugation, the resulting plasma was transferred to clean tubes for bioanalysis on LC/MS/MS. The pharmacokinetic parameters were calculated using non-compartmental module of WinNonlin® Professional 6.2. […] Therefore, compounds of present invention potentially could lead to less dose frequency and lower dose in clinical application.

The target of the next data set is human TLR8 (Homo sapiens (Human), UniProt Q9NR97). Kind of data set: HEK-Blue-hTLR8 cells assay and selectivity index. Format: cell-based. Particulars: EC50(TLR8) value/EC50(TLR7) value.
Sequence of human TLR8 (Q9NR97 27-1041): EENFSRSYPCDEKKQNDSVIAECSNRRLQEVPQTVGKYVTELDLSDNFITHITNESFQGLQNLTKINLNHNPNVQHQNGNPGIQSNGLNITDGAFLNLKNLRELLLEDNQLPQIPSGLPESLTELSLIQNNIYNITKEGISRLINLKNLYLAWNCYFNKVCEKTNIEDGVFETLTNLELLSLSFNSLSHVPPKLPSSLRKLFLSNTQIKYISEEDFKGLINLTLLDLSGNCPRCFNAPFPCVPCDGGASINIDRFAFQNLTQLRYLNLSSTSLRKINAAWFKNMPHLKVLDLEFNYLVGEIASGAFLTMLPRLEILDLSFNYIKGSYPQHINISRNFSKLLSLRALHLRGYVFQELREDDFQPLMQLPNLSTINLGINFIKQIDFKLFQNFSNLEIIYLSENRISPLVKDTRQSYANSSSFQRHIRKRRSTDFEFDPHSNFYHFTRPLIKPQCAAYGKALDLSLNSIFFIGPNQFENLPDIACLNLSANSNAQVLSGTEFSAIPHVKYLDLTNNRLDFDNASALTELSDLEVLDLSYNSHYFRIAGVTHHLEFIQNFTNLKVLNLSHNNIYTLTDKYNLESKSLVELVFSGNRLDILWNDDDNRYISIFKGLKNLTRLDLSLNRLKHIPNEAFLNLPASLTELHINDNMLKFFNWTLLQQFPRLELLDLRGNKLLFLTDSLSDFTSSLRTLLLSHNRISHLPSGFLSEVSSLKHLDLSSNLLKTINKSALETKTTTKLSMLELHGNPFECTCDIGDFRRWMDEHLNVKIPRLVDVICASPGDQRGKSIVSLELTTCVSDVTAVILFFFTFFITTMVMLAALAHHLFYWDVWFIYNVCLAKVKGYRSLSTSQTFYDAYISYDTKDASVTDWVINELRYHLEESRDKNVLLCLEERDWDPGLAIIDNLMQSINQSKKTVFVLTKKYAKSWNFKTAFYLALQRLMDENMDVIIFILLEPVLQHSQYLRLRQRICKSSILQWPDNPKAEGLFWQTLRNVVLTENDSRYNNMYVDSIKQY
Setting [2] is: human, CHO cells stably expressing hERG, read-out: hERG IC20.
The mark [3] stands for this setting: male, Wistar-Han, plasma, iv, 1 mg/kg, 0.083 h.
Where [4] appears, read: male, Wistar-Han, plasma, iv, 1 mg/kg, 0.25 h.
[5] abbreviates: male, Wistar-Han, plasma, iv, 1 mg/kg, 0.5 h.
The mark [6] stands for this setting: male, Wistar-Han, plasma, iv, 1 mg/kg, 1 h.
Setting [7] is: male, Wistar-Han, plasma, iv, 1 mg/kg, 2 h.
Setting [8] is: male, Wistar-Han, plasma, iv, 1 mg/kg, 4 h.
Where [9] appears, read: 7 hrs (row printed 8**), read-out: Mean plasma concentration.

Read-outs that look alike come from different tables or passages of the source.

The text below walks through data of patent US9708325B2, “Sulfonimidoylpurinone compounds and derivatives for the treatment and prophylaxis of virus infection” (Hoffmann-La Roche Inc., priority 2015, dated 2017).

As a reminder, the IC20 is the concentration at which the effect reaches the 20% level. A word on the IC50: it is the midpoint of a concentration-inhibition curve.

Sequence of hERG channel (Q12809 whole entry): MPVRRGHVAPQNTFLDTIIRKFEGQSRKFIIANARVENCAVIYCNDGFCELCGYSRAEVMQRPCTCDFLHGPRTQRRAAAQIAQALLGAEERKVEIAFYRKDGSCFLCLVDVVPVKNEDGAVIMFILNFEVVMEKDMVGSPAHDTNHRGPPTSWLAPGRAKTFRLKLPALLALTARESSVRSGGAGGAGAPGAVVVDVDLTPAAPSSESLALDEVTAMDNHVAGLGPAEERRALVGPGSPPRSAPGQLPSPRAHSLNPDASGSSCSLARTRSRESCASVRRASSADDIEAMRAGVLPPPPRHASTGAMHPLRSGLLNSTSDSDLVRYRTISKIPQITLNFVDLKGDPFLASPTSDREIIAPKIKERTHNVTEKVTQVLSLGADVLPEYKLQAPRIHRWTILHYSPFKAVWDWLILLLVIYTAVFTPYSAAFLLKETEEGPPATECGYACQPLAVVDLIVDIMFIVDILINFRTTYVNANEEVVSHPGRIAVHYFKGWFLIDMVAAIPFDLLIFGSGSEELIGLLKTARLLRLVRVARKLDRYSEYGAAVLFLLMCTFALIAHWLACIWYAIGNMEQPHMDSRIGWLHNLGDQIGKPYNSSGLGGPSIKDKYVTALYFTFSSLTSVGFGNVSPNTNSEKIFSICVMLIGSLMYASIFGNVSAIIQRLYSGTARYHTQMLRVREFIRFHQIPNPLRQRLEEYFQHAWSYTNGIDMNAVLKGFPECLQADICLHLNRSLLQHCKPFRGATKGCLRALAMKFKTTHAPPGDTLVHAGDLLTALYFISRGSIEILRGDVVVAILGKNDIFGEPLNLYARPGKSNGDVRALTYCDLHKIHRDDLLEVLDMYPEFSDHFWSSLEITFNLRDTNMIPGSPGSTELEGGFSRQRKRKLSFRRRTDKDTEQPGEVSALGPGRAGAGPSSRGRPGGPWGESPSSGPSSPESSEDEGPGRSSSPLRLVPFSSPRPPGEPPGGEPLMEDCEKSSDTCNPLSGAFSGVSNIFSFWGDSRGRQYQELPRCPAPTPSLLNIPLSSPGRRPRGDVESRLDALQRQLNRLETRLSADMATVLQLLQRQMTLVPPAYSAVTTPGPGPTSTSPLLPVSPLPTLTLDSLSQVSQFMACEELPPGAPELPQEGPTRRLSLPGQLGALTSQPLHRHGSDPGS

In the case of `CCCS(=N)(=O)c1nc(N)c2[nH]c(=O)n(Cc3ccc(Cl)cc3)c2n1` (stereo not drawn) [Example 9, 6-Amino-9-[(4-chlorophenyl)methyl]-2-(propylsulfonimidoyl)-7H-purin-8-one], on hERG channel, the “Safety ratio (hERG IC20/EC50)” value was >833. In addition, at hERG channel (setting [2]), the concentration for an effect of 20% (IC20) was > 10 µM. Besides, the concentration for half-maximal inhibition (IC50) at hERG channel (read-out: hERG IC50) was > 20 µM.
In the case of `CCS(=N)(=O)c1nc(N)c2[nH]c(=O)n(Cc3ccc(C)cc3)c2n1` (single isomer, unassigned) [Example 71-A, 6-Amino-2-(ethylsulfonimidoyl)-9-(p-tolylmethyl)-7H-purin-8-one], the “Relative induction of Positive control (10 μM Rifampicin) (%)” value (“Relative induction … (%)” below) in the data set with CYP3A4 was −0.10%. The “Safety ratio (hERG IC20/EC50)” value at hERG channel is >75. Besides, in data set [1], the “CO” value was 1848 nM. The concentration at 0.083 h in data set [1] (setting [3]) stood at 1850 nM. This compound displayed a concentration at 0.25 h in data set [1] (setting [4]) of 1000 nM. Moreover, the concentration at 0.5 h in data set [1] (setting [5]) was 537 nM. This compound came in with a concentration at 1 h in data set [1] (setting [6]) of 292 nM. In data set [1] (setting [7]), this compound gave a concentration at 2 h of 115 nM. The concentration at 4 h in data set [1] (setting [8]) came out at 18.2 nM.
For `CCCS(=N)(=O)c1nc(N)c2[nH]c(=O)n(Cc3ccccc3)c2n1` (single isomer, unassigned) [Example 4-B, 6-Amino-9-benzyl-2-(propylsulfonimidoyl)-7H-purin-8-one], the “Relative induction … (%)” value in the data set on CYP3A4 is given as −0.90%. The “Safety ratio (hERG IC20/EC50)” value on hERG channel is on record as >116. At hERG channel (read-out: hERG IC20), the concentration for an effect of 20% (IC20) was > 10 µM.
The matching figures for `CCCS(=N)(=O)c1nc(N)c2[nH]c(=O)n(Cc3ccccc3)c2n1` (single isomer, unassigned) [Example 4-A, 6-Amino-9-benzyl-2-(propylsulfonimidoyl)-7H-purin-8-one]: −0.63%, >149 and > 10 µM.
Regarding `CCCS(=N)(=O)c1nc(N)c2[nH]c(=O)n(Cc3ccccc3)c2n1` (stereo not drawn) [Example 4, 6-Amino-9-benzyl-2-(propylsulfonimidoyl)-7H-purin-8-one], the “Safety ratio (hERG IC20/EC50)” value at hERG channel was >154. In addition, on hERG channel (setting [2]), the IC20 was > 10 µM. Further, at hERG channel (read-out: hERG IC50), the 50% inhibitory concentration (IC50) was > 20 µM.
In the case of `CCS(=N)(=O)c1nc(N)c2[nH]c(=O)n(Cc3ccc(Cl)cc3)c2n1` (single isomer, unassigned) [Example 70-B, 6-Amino-9-[(4-chlorophenyl)methyl]-2-(ethylsulfonimidoyl)-7H-purin-8-one], in the data set on CYP3A4, the “Relative induction … (%)” value is −0.42%. For the same compound, the “AUC0-inf” value in data set [1] stood at 1.894 µM·h. Further, the “CL” value in data set [1] was 48.7 mL/min/kg. Further, the “CO” value in data set [1] was determined as 2782 nM. The concentration at 4 h turned out to be 2782 nM in data set [1] (0.083 h, read-out: Mean plasma concentration); 1434 nM in data set [1] (0.25 h, read-out: Mean plasma concentration); 862 nM in data set [1] (0.5 h, read-out: Mean plasma concentration); 461 nM in data set [1] (1 h, read-out: Mean plasma concentration); 173 nM in data set [1] (2 h, read-out: Mean plasma concentration); 29.1 nM in data set [1] (4 h, read-out: Mean plasma concentration). Further, the concentration at 4 h in data set [1] (setting [9]) is on record as 16.7 nM.
As to `CCCS(=N)(=O)c1nc(N)c2[nH]c(=O)n(Cc3ccc(C)nc3)c2n1` (stereo not drawn) [Example 34, 6-Amino-9-[(6-methyl-3-pyridyl)methyl]-2-(propylsulfonimidoyl)-7H-purin-8-one], the IC50 against hERG channel is > 20 µM. Besides, the concentration for an effect of 20% (IC20) against hERG channel (human) is > 10 µM.
As to `CCCS(=N)(=O)c1nc(N)c2[nH]c(=O)n(Cc3ccc(F)c(F)c3)c2n1` (stereo not drawn) [Example 27, 6-Amino-9-(3,4-difluorophenylmethyl)-2-(propylsulfonimidoyl)-7H-purin-8-one], the “Safety ratio (hERG IC20/EC50)” value at hERG channel is on record as >278. Also, the 20% effect concentration (IC20) on hERG channel (setting [2]) is > 10 µM. For the same compound, the IC50 on hERG channel (read-out: hERG IC50) is > 20 µM.
On to `CCCS(=N)(=O)c1nc(N)c2[nH]c(=O)n(Cc3ccc(C)cc3)c2n1` (single isomer, unassigned) [Example 29-A, 6-Amino-2-(propylsulfonimidoyl)-9-(p-tolylmethyl)-7H-purin-8-one], for which the “Safety ratio (hERG IC20/EC50)” value on hERG channel is given as >526.
As to `CCS(=N)(=O)c1nc(N)c2[nH]c(=O)n(Cc3ccc(Cl)cc3)c2n1` (single isomer, unassigned) [Example 70-A, 6-Amino-9-[(4-chlorophenyl)methyl]-2-(ethylsulfonimidoyl)-7H-purin-8-one], the “Relative induction … (%)” value in the data set on CYP3A4 worked out at 0.42%. For the same compound, in data set [1], the “CO” value worked out at 3052 nM. For the same compound, the concentration at 4 h in data set [1] (setting [9]) was determined as 6.28 nM; in data set [1] (setting [8]), 20.5 nM. Further, in data set [1] (setting [3]), the concentration at 0.083 h was found to be 3050 nM. Besides, the concentration at 0.25 h in data set [1] (setting [4]) stood at 1340 nM. For the same compound, the concentration at 0.5 h in data set [1] (setting [5]) was found to be 718 nM. Further, in data set [1] (setting [6]), the concentration at 1 h was 354 nM. Further, in data set [1] (setting [7]), the concentration at 2 h came out at 110 nM. The Selective index on human TLR8 is >18518.
For `CCCS(=N)(=O)c1nc(N)c2[nH]c(=O)n(Cc3ccc(C(=O)O)cc3)c2n1` (stereo not drawn) [Example 39, 4-[[6-Amino-8-oxo-2-(propylsulfonimidoyl)-7H-purin-9-yl]methyl]benzoic acid], on hERG channel, the “Safety ratio (hERG IC20/EC50)” value is >59. For the same compound, the IC20 at hERG channel (setting [2]) is > 10 µM. The 50% inhibitory concentration (IC50) on hERG channel (read-out: hERG IC50) was > 20 µM.
